Experimental data from patent US10899764B2, “Imidazo isoindole derivative, preparation method therefor and medical use thereof” (Jiangsu Hengrui Medicine Co., Ltd., priority 2015, dated 2021).
Counter-ions that a name gives are not always drawn. Like-named read-outs stand apart in the source and are kept apart here.

How the values were obtained:
human IDO1 = human IDO1 (Homo sapiens (Human), UniProt P14902); assay: Inhibition activity on human IDO1 (enzyme assay, absorbance at 480 nm); format: biochemical; details: read-out: IC50 for inhibiting the activity of human IDO1
Experimental: Assay for Determining the Inhibition Activity of the Present Compounds on Human IDO1
Human IDO1 activity was tested in vitro by the following method.
This method is used to determine the inhibition effect of the compounds of the present invention on the activity of human IDO1.
The human IDO1 gene was transferred to Pet30a plasmid by gene cloning, and then transferred to competent Escherichia coli Rosseta. The IDO1 gene was scaled-up by culturing in liquid LB (Luria-Bertani) medium [which was prepared per liter according to “Molecular Cloning A Laboratory Manual” (J. Sambrook, D. W. Russell)]). The bacteria were collected and lysed by ultrasonic waves. The purified IDO1 was obtained by eluting from a column.
For testing, 24 μL of enzyme (IDO1) was diluted 100 times with 50 mM KPB to 2400 μL. The concentration of the enzyme solution was 2.6 ng/μL. A 96 well reaction plate (AXYGEN, PCR-96-FLT-C) (hereinafter referred to as the “reaction plate”) was added with the enzyme solution at 24 μL/well. The blank well was added with 24 μL of KPB [Preparation of KPB buffer (50 mM): 6.805 g of KH2PO4 was weighed using an analytical balance, and placed into a 1000 mL beaker, deionized water was added with a measuring cylinder to 900 ml, the pH was adjusted to 6.5 by 1M KOH, then the mixture was introduced into a 1 L measuring cylinder, and water was added to 1 L. It was stored at 4° C.]. Then, 1 μL of a compound or DMSO was added into the corresponding wells in the reaction plate. Preparation of solution A: 200 μL of 500 mM L-sodium ascorbate were added with 1050 μL of KPB, then the mixture was mixed uniformly for 3 seconds at the maximum speed in a turbine mixer. Solution B: 100 μL of 10 mM tryptophan were added with 100 μL of 100,000 unit/mL catalase, 5 μL of 10 mM methylene blue, and 1050 μL of KPB successively, then the mixture was mixed uniformly for 3 seconds at the maximum speed in a turbine mixer. Then, 1200 μL of solution A and 1200 μL of solution B were taken and mixed uniformly for 3 seconds at the maximum speed in a turbine mixer. The mixture was added to the reaction plate at 24 μL/well. The reaction plate was placed in a plate centrifuge and centrifuged for 15 seconds at the maximum speed, so that the reaction liquids converged to the bottom. The reaction mixture was mixed uniformly for 30 seconds on a shaker, and incubated for 1 hour at 37° C. in a constant temperature incubator. In the reaction plate, 30% (W/V) trichloroacetic acid was added at 10 μL/well, then the mixture was incubated for 15 minutes at 65° C. in an incubator. The reaction plate was centrifuged in a centrifuge for 5 minutes at 4700 RPM at room temperature. […] Then, 2% (W/V) 4-(dimethylamino)benzaldehyde/glacial acetic acid solution was added at 40 μL/well, and the mixture was mixed uniformly for 1 minute on a shaker at the maximum speed. After incubation for 2 minutes at room temperature, the absorbance at 480 nm was read on a Synergy HT (BIOTEK) reader.
The inhibition activity of the compounds of the present invention on human IDO1 was tested by the assay described above.

human TDO = human TDO (Homo sapiens (Human), UniProt P48775); assay: Inhibition activity on human TDO (tryptophan 2,3-dioxygenase) (enzyme assay, absorbance at 480 nm); format: biochemical; details: read-out: IC50 for inhibiting the activity of human TDO
Experimental: Assay for Determining the Inhibition activity of the Compounds of the Present Invention on Human TDO (tryptophan 2,3-dioxygenase)
Human TDO activity was tested in vitro by the following method.
This method is used to determine the inhibition effect of the compounds of the present invention on the activity of human TDO.
Plasmids constructed with the human TDO gene were transferred to competent Escherichia coli Rosseta. The TDO gene was scaled-up by culturing in liquid LB (Luria-Bertani) medium [which was prepared per liter according to “Molecular Cloning A Laboratory Manual” (J. Sambrook, D. W. Russell)]). The bacteria were collected and lysed by ultrasonic waves. The purified TDO was obtained by eluting from a column.
For testing, 24 μL of enzyme (TDO) was diluted 100 times with 50 mM KPB to 2400 μL. The concentration of the enzyme solution was 2.6 ng/μL. A 96 well reaction plate (AXYGEN, PCR-96-FLT-C) (hereinafter referred to as the “reaction plate”) was added with the enzyme solution at 24 μL/well. The blank well was added with 24 μL of KPB [Preparation of KPB buffer (50 mM): 6.805 g of KH2PO4 was weighed using an analytical balance, and placed into a 1000 mL beaker, deionized water was added with a measuring cylinder to 900 mL, the pH was adjusted to 6.5 by 1M KOH, then the mixture was introduced into a 1 L measuring cylinder, and water was added to 1 L. It was stored at 4° C.]. Then, 1 μL of a compound or DMSO was added into the corresponding wells in the reaction plate. Preparation of solution A: 200 μL of 500 mM L-sodium ascorbate was added with 1050 μL of KPB, then the mixture was mixed uniformly for 3 seconds at the maximum speed in a turbine mixer. Solution B: 100 μL of 10 mM tryptophan was added with 100 μL of 100,000 unit/ml catalase, 5 μL of 10 mM methylene blue, and 1050 μL of KPB successively, then the mixture was mixed uniformly for 3 seconds at the maximum speed in a turbine mixer. Then, 1200 μL of solution A and 1200 μL of solution B were taken and mixed uniformly for 3 seconds at the maximum speed in a turbine mixer. The mixture was added to the reaction plate at 24 μL/well. The reaction plate was placed in a plate centrifuge and centrifuged for 15 seconds at the maximum speed, so that the reaction liquids converged to the bottom. The reaction mixture was mixed uniformly for 30 seconds on a shaker, and incubated for 1 hour at 37° C. in a constant temperature incubator. In the reaction plate, 30% (W/V) trichloroacetic acid was added at 10 μL/well, then the mixture was incubated for 15 minutes at 65° C. in a incubator. The reaction plate was centrifuged in a centrifuge for 5 minutes at 4700 RPM at room temperature. […] Then, 2% (W/V) 4-(dimethylamino)benzaldehyde/glacial acetic acid solution was added at 40 μL/well, then the mixture was mixed uniformly for 1 minute on a shaker at the maximum speed. After incubation for 2 minutes at room temperature, the absorbance at 480 nm was read on a Synergy HT Reader.
The inhibition activity of the compounds of the present invention on human TDO was tested by the assay described above.

IDO in HeLa cells = IDO in HeLa cells (Homo sapiens (Human), UniProt P14902); assay: Inhibition activity on IDO in HeLa cells (INF-γ induced); format: cell-based; details: read-out: IC50 for inhibiting the activity of IDO in HeLa cells
Experimental: Assay for Determining the Inhibition Activity of the Present Compounds on IDO in HeLa Cells
IDO activity in HeLa cells was tested in vitro by the following method.
This method is used to determine the inhibition effect of the compounds of the present invention on the activity of IDO in HeLa cells. (Note: indoleamine 2,3-dioxygenase (IDO) is expressed in the HeLa cell line and induced by interferon gamma (INF-γ)).
The supernatant was removed, serum-free DMEM high glucose medium was added at 90 μL/well, then the compounds contained in the culture medium with INF-γ and tryptophan were added at 10 μL/well (the final concentrations: 10000, 1000, 100, 10, 1, 0.1 nM). […] Then, 80 μL of the supernate was transferred from the 96-well cell culture plate to a 96 well round-bottomed plate, then 30% (W/V) trichloroacetic acid was added at 16 μL/well, then the mixture was incubated for 25 minutes at 65° C. in an incubator. The reaction plate was centrifuged in a centrifuge for 5 minutes at 4700 RPM. Then, 50 μL of the supernatant was transferred from the reaction plate to a 96-well flat-bottomed transparent plate by a multi-channel pipette. Then, 2% (W/V) 4-(dimethylamino)benzaldehyde/glacial acetic acid solution was added at 50 μL/well, then the mixture was mixed uniformly for 1 minute on a shaker. After incubation for 2 minutes at room temperature, the absorbance at 480 nm was read on a Synergy HT Reader.
The inhibition activity of the compounds of the present invention on IDO in HeLa cells was tested by the assay described above.

[1] = purified recombinant human IDO1, 1 hour at 37° C.
[2] = purified recombinant human TDO, 1 hour at 37° C.
[3] = HeLa cells, INF-γ and tryptophan, 48 hours

Chain of human IDO1 (P14902 whole entry): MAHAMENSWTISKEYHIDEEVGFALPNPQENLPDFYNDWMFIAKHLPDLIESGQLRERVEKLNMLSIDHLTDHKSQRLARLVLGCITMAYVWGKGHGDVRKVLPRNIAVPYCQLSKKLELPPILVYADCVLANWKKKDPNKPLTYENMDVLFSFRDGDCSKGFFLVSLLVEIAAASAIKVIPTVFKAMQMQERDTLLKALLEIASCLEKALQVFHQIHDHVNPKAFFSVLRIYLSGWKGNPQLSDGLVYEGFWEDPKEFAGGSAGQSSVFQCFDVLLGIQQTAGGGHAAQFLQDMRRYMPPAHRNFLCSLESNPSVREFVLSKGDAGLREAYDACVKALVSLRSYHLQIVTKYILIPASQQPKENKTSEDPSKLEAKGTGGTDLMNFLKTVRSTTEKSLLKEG
Chain of IDO in HeLa cells (P14902 whole entry): as above
Chain of human TDO (P48775 whole entry): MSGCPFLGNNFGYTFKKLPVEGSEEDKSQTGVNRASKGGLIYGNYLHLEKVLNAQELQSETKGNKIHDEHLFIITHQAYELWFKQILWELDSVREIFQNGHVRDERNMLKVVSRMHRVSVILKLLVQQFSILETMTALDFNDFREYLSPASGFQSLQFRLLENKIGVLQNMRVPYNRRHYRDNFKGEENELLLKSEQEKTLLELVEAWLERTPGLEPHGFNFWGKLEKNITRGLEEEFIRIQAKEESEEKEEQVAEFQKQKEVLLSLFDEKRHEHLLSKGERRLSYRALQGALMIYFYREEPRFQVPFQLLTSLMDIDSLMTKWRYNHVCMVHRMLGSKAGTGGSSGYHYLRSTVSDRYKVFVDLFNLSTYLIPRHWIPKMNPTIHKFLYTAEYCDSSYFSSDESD

Fc1cccc2c1C(C1CCN(c3ccccc3)CC1)n1cncc1-2 (centres unmarked) [Example 1, 6-fluoro-5-(1-phenylpiperidin-4-yl)-5H-imidazo[5,1-a]isoindole trifluoroacetate]
IC50 (human IDO1): 87.4 nM
IC50 (human TDO): 338 nM

Fc1ccc2c(c1)C(C1CCN(c3ccccc3)CC1)n1cncc1-2 (centres unmarked) [Example 2, 7-fluoro-5-(1-phenylpiperidin-4-yl)-5H-imidazo[5,1-a]isoindole trifluoroacetate]
IC50 (human TDO): 215 nM

N#Cc1ccc(N2CCC(C3c4c(F)cccc4-c4cncn43)CC2)cc1 (centres unmarked) [Example 5, 4-(4-(6-fluoro-5H-imidazo[5,1-a]isoindol-5-yl)piperidin-1-yl)benzonitrile trifluoroacetate]
IC50 (human IDO1): 81.2 nM
IC50 (human TDO): 394 nM
IC50 (IDO in HeLa cells): 353 nM

NC(=O)c1ccc(N2CCC(C3c4c(F)cccc4-c4cncn43)CC2)cc1 (centres unmarked) [Example 6, 4-(4-(6-fluoro-5H-imidazo[5,1-a]isoindol-5-yl)piperidin-1-yl)benzamide trifluoroacetate]
IC50 (human TDO): 394 nM

Fc1cccc2c1C(C1CCN(c3ncc(-c4cnn(C5CCOCC5)c4)cn3)CC1)n1cncc1-2 (centres unmarked) [Example 18, 6-fluoro-5-(1-(5-(1-(tetrahydro-2H-pyran-4-yl)-1H-pyrazol-4-yl)pyrimidin-2-yl)piperidin-4-yl)-5H-imidazo[5,1-a]isoindole]
IC50 (human IDO1; [1]): 34 nM
IC50 (human TDO; [2]): 361 nM
IC50 (IDO in HeLa cells; [3]): 198 nM

Fc1cccc2c1C(C1CCN(c3ncc(-c4ccccc4)s3)CC1)n1cncc1-2 (centres unmarked) [Example 23, 2-(4-(6-fluoro-5H-imidazo[5,1-a]isoindol-5-yl)piperidin-1-yl)-5-phenylthiazole trifluoroacetate]
IC50 (human IDO1; [1]): 48.2 nM
IC50 (human TDO; [2]): 399 nM
IC50 (IDO in HeLa cells; [3]): 439 nM

Fc1cccc2c1C(C1CCN(c3ccccc3)C1)n1cncc1-2 (centres unmarked) [Example 25, 6-fluoro-5-(1-phenylpyrrolidin-3-yl)-5H-imidazo[5,1-a]isoindole trifluoroacetate]
IC50 (human TDO): 257 nM

OC[C@@H](O)Cn1cc(-c2ccc(N3CCC(C4c5c(F)cccc5-c5cncn54)CC3)cc2)cn1 (stereo partly drawn) [Example 29, (2S)-3-(4-(4-(4-(6-fluoro-5H-imidazo[5,1-a]isoindol-5-yl)piperidin-1-yl)phenyl)-1H-pyrazol-1-yl)propane-1,2-diol]
IC50 (human IDO1; [1]): 35.9 nM
IC50 (human TDO; [2]): 220 nM
IC50 (IDO in HeLa cells; [3]): 292 nM

OC[C@H](O)Cn1cc(-c2ccc(N3CCC(C4c5c(F)cccc5-c5cncn54)CC3)cc2)cn1 (stereo partly drawn) [Example 30, (2R)-3-(4-(4-(4-(6-fluoro-5H-imidazo[5,1-a]isoindol-5-yl)piperidin-1-yl)phenyl)-1H-pyrazol-1-yl)propane-1,2-diol trifluoroacetate]
IC50 (human IDO1; [1]): 58.7 nM
IC50 (human TDO; [2]): 319 nM
IC50 (IDO in HeLa cells; [3]): 334 nM

Nc1cc(-c2nnc(N3CCC(C4c5c(F)cccc5-c5cncn54)CC3)s2)ccn1 (centres unmarked) [Example 36, 4-(5-(4-(6-fluoro-5H-imidazo[5,1-a]isoindol-5-yl)piperidin-1-yl)-1,3,4-thiadiazol-2-yl)pyridin-2-amine trifluoroacetate]
IC50 (human IDO1; [1]): 10.6 nM
IC50 (human TDO; [2]): 104 nM
IC50 (IDO in HeLa cells; [3]): 27.8 nM

CS(=O)(=O)N1CCC(Oc2ccc(N3CCC(C4c5c(F)cccc5-c5cncn54)CC3)cc2)CC1 (centres unmarked) [Example 39, 6-fluoro-5-(1-(4-((1-(methylsulfonyl)piperidin-4-yl)oxy)phenyl)piperidin-4-yl)-5H-imidazo[5,1-a]isoindole]
IC50 (human IDO1; [1]): 15.5 nM
IC50 (human TDO; [2]): 243 nM
IC50 (IDO in HeLa cells; [3]): 198 nM

N#Cc1ccc(N2CCC(C3c4c(F)cccc4-c4cncn43)CC2)cc1F (centres unmarked) [Example 45, 2-fluoro-4-(4-(6-fluoro-5H-imidazo[5,1-a]isoindol-5-yl)piperidin-1-yl)benzonitrile]
IC50 (human IDO1; [1]): 8.84 nM
IC50 (human TDO; [2]): 234 nM
IC50 (IDO in HeLa cells; [3]): 231 nM

Fc1ccc(N2CCC(C3c4c(F)cccc4-c4cncn43)CC2)cc1F (centres unmarked) [Example 46, 5-(1-(3,4-difluorophenyl)piperidin-4-yl)-6-fluoro-5H-imidazo[5,1-a]isoindole]
IC50 (human IDO1): 6.68 nM
IC50 (human TDO): 68.9 nM
IC50 (IDO in HeLa cells; [3]): 69.1 nM
